According to patent publication US8809319B2, “Substituted 8-oxa-10,11-dihydroimidazo[2,3-a]bicyclo[3.2.1]oct-3-enes and use thereof as an insecticide” (priority 2009, dated 2014):
Values after ≈ are worked out from the molar mass of the structure shown. Like-named read-outs stand apart in the source and are kept apart here.

Tests used:
[1] = tested on: Pseudaletia separata Walker; test: Insecticidal activity against armyworms, leaf-dipping method; format: in vivo; conditions: for LC50 / mortality at 500 µg/mL: Mythimna separata; for mortality at 500 µg/mL: read-out: Pseudaletia separata Walker Mortality rate (%, 500 mg L^−1)
Source text: Second instar Pseudaletia separata Walker larvae were used as the subjects and the dipping method was employed for testing.
Pseudaletia separata Walker, which is a very important lepidopterans pest of various grains, can be suitably used in various of applications, for example, in the study of toxicity, such as the stomach toxicity, contact poisoning, comprehensive and residual effects of insecticides, and other aspects of insect toxicology, as well as the screen test for new compounds. Pseudaletia separata Walker extermination activity was tested in accordance with a method reported in the literature.
Operation procedure of the leaf-dipping method: Each sample was precisely weighed, and 2 mL of DMSO and 18 mL of water were added respectively; and then, three drops of the emulsion agent 2001 (procured from Shanghai Nongyaochang Co., Ltd.) were added to form the test liquid. A blank was also formulated by adding three drops of the 2201 emulsion agent to 2 mL of DMSO and […]. Fresh corn leaves were torn into small pieces and immersed for about five seconds in the liquid, then removed, air-dried, and placed in a 100-mL jar. About 20 2nd instar larvae were introduced into the jar. The jar was closed using white gauze and a rubber band, and the larvae were fed with corn soaked with the liquid continuously. The mortality rate of the larvae was checked after five days. The requisite temperature was 22° C. to 27° C., humidity 70% to 80%. There was no need to correct the mortality rates for each treatment if the blank mortality rate was 5% or less; however, if the control mortality rate was 5% to 20%, Abbott's correction should be used for the mortality rates for each treatment. Abbott's formula: Corrected mortality rate=[(treated mortality rate−control mortality rate)/(100−control mortality rate)×100].

[2] = tested on: N1 α 1/β 2 receptors expressed by the oocytes; test: Mechanism of action, electrophysiological testing on receptors expressed by oocytes; format: cell-based
Source text: (§1) The compound (1a) was separately subjected to electrophysiological testing and isotope marker substitution testing.

[3] = tested on: nicotinic acetylcholine receptors of Periplaneta americana; test: Mechanism of action, electrophysiological testing on cockroach nAChRs; format: cell-based
Source text: as §1

[4] = tested on: Nilaparvata lugens susceptible strain; test: Insecticidal activity against Nilaparvata lugens, micro-drip method, susceptible strain; format: in vivo; conditions: for Magnitude of resistance / Relative toxicity / LD50 (ng/pest): susceptible strain; for Relative toxicity: relative to imidacloprid; for LD50 (ng/pest): topical micro-drip, 48 hours
Description: (§2) Nilaparvata lugens, which belongs to the Homoptera and has piercing-sucking mouth parts, is a common pest for agricultural crops. Nilaparvata lugens was used as the subject, and the micro-drip measurement method reported by Nagata was employed for testing.
(§3) Operation procedure: Unmated winged females two to three days after eclosion were selected as the test subjects; the compounds were diluted in acetone to a series of concentrations. The insects were paralyzed by carbon dioxide, and the liquid (0.08 μL) was dripped onto the pronotum of the insects using a manual micro-dripper (Burkard Manufacturing Co., Ltd., Rickmansworth, UK). Each of the concentrations was used to treat about 30 insects in triplicate. Acetone was used as the control. The treated adult insects were cultured on rice seedlings grown without soil in an incubator (20×20×10 cm), where the temperature was controlled at 25±1° C. with 16/8 hours of light and dark cycle. The results were checked after 48 hours, and the LD50 was calculated using a standard probability analysis method.

[5] = tested on: Nilaparvata lugens resistant strain; test: Insecticidal activity against Nilaparvata lugens, micro-drip method, resistant strain; format: in vivo; conditions: for Magnitude of resistance: resistant strain versus susceptible strain; for Relative toxicity / LD50 (ng/pest): resistant strain; for Relative toxicity: relative to imidacloprid; for LD50 (ng/pest): topical micro-drip, 48 hours
Description: as §2, §3

[6] = tested on: Aphis craccivora; test: Insecticidal activity against aphids, dipping method; format: in vivo; conditions: for LC50 / mortality at 500 µg/mL: Aphis craccivora; for mortality at 500 µg/mL: read-out: Aphis craccivora Mortality rate (%, 500 mg L^−1)
Description: Aphids, which belong to the Homoptera and have piercing-sucking mouth parts, are a common pest for agricultural crops. Aphis craccivora was used as the subject, and a dipping method was employed for testing.
Testing method: Each sample was precisely weighed, and 2 mL of DMSO and 18 mL of water were added respectively; then, three drops of the emulsion agent 200I were added to form a testing liquid; a blank was also prepared by adding three drops of emulsion agent 220I to 2 mL of DMSO and 18 mL of water. Broad bean leaves adhered by a certain number of insects were immersed in the testing liquid for three to five seconds, then removed and air-dried; the insects were moved into a clean container together with feed, and the container was placed in a dry, thermostatic recovery room. After 24 hours, the number of dead insects was checked.

[7] = foliar, 120 h, read-out: Pseudaletia separata Walker LC50 (mmol L^−1)
[8] = 24 h, read-out: Aphis craccivora LC50 (mmol L^−1)

`O=[N+]([O-])C1=C2N(Cc3ccc(Cl)nc3)CCN2[C@@H]2CC[C@H]1O2` [Compound 1a, 9-((6-chloropyrid-3-yl)methyl)-4-nitro-8-oxa-10,11-dihydroimidazo-[2,3-a]-bicyclo-[3,2,1]-oct-3-ene] showed an LC50 [1, 7] of 12.5 µg/mL (≈ 38.7 µM), a mortality at 500 µg/mL ([1]; foliar, 120 h) of 100% and an LC50 ([1]; read-out: LC50 against Pseudaletia separata Walker) of 12.5 µg/mL (≈ 38.7 µM). The “agonistic action on N1 α 1/β 2 receptors expressed by the oocytes” value [2] was “no agonistic action”, the “mode of action on nicotinic acetylcholine receptor (nAChRs)” value ([3]; conclusion from electrophysiological and isotope marker substitution testing) was “antagonist” and the “agonistic action on nicotinic acetylcholine receptors of Periplaneta americana” value ([3]; electrophysiological testing) was “no agonistic action”. The “inhibition of the agonist response to acetylcholine” value ([3]; receptor preparation not given) was “can inhibit the agonist response to acetylcholine”, the “activity against susceptible Niloparvata lugens versus imidacloprid” value [4] was “generally the same as that of imidacloprid” and the Magnitude of resistance [4] was 1.00. The Relative toxicity [4] was 1.77, the “LD50 (ng/pest)” value [4] was 0.0742 ± 0.0106 ng/pest and the “activity against imidacloprid-resistant Niloparvata lugens versus imidacloprid” value [5] was 50 times. For the same compound, the Magnitude of resistance [5] was 6.64, the Relative toxicity [5] was 50.00 and the “LD50 (ng/pest)” value [5] was 0.4925 ± 0.0811 ng/pest. For the same compound, the LC50 [6, 8] was 1.52 µg/mL (≈ 4.71 µM), the mortality at 500 µg/mL ([6]; 24 h) was 100% and the LC50 ([6]; read-out: LC50 against aphids) was 1.52 µg/mL (≈ 4.71 µM).
`O=[N+]([O-])C1=C2N(Cc3cnc(Cl)s3)CCN2[C@@H]2CC[C@H]1O2` [Compound 1b, 9-((2-chlorothiazol-5-yl)methyl)-4-nitro-8-oxa-10,11-dihydroimidazo-[2,3-a]-bicyclo-[3,2,1]-oct-3-ene] showed a mortality at 500 µg/mL ([1]; foliar, 120 h) of 100% and a mortality at 500 µg/mL ([6]; 24 h) of 100%.
`O=[N+]([O-])C1=C2N(Cc3ccccc3)CCN2[C@@H]2CC[C@H]1O2` [Compound 1c, 9-benzyl-4-nitro-8-oxa-10,11-dihydroimidazo-[2,3-a]-bicyclo-[3,2,1]-oct-3-ene] was tested, and the mortality at 500 µg/mL ([1]; foliar, 120 h) was 0% and the mortality at 500 µg/mL ([6]; 24 h) was 13.6%.
Compound `O=[N+]([O-])C1=C2N(Cc3ccc(Cl)cc3)CCN2[C@@H]2CC[C@H]1O2` [Compound 1d, 9-(4-chloro-benzyl)-4-nitro-8-oxa-10,11-dihydroimidazo-[2,3-a]-bicyclo-[3,2,1]-oct-3-ene] has a mortality at 500 µg/mL ([1]; foliar, 120 h) of 0% and a mortality at 500 µg/mL ([6]; 24 h) of 95.7%.
`O=[N+]([O-])C1=C2N(Cc3ccc(Cl)nc3)CCN2[C@H]2CCC[C@@H]1O2` [Compound 2a, 10-((6-chloropyrid-3-yl)methyl)-4-nitro-9-oxa-11,12-dihydroimidazo-[2,3-a]-bicyclo-[3,3,1]-non-3-ene] gave a mortality at 500 µg/mL ([1]; foliar, 120 h) of 0%, a Magnitude of resistance [4] of 1.00 and a Relative toxicity [4] of 0.32. For the same compound, the “LD50 (ng/pest)” value [4] was 4.1440 ± 0.6136 ng/pest, the Magnitude of resistance [5] was 4.58 and the Relative toxicity [5] was 1.17. For the same compound, the “LD50 (ng/pest)” value [5] was 18.9795 ± 2.3501 ng/pest and the mortality at 500 µg/mL ([6]; 24 h) was 87.3%.
`O=[N+]([O-])C1=C2N(Cc3cnc(Cl)s3)CCN2[C@H]2CCC[C@@H]1O2` [Compound 2b, 10-((2-chlorothiazol-5-yl)methyl)-4-nitro-9-oxa-11,12-dihydroimidazo-[2,3-a]-bicyclo-[3,3,1]-non-3-ene] gave a mortality at 500 µg/mL ([1]; foliar, 120 h) of 0% and a mortality at 500 µg/mL ([6]; 24 h) of 98.2%.
In the case of `O=[N+]([O-])C1=C2N(Cc3ccccc3)CCN2[C@H]2CCC[C@@H]1O2` [Compound 2c, 10-benzyl-4-nitro-9-oxa-11,12-dihydroimidazo-[2,3-a]-bicyclo-[3,3,1]-non-3-ene], the mortality at 500 µg/mL ([1]; foliar, 120 h) is reported as 0% and the mortality at 500 µg/mL ([6]; 500 mg L^−1, dipping, after 24 hours) is reported as 55.6%.
`O=[N+]([O-])C1=C2N(Cc3ccc(Cl)cc3)CCN2C2CCCC1O2` (stereo not drawn) [Compound 2d, 10-(4-chlorobenzyl)-4-nitro-9-oxa-11,12-dihydroimidazo-[2,3-a]-bicyclo-[3,3,1]-non-3-ene] was tested, and the “Pseudaletia separata Walker Mortality rate (%, 500 mg L^−1)” value ([1]; in vivo) was 0% and the “Aphis craccivora Mortality rate (%, 500 mg L^−1)” value ([6]; in vivo) was 38.9%.
Work on `O=[N+]([O-])NC1=NCCN1Cc1ccc(Cl)nc1` [Imidacloprid, reference compound] yielded an LC50 [1, 7] of 38.7 µg/mL (≈ 151 µM), a mortality at 500 µg/mL ([1]; foliar, 120 h) of 100% and a Magnitude of resistance [4] of 1.00. The Relative toxicity [4] was 1.00, the “LD50 (ng/pest)” value [4] was 0.1316 ± 0.0154 ng/pest and the Magnitude of resistance [5] was 168.40. The Relative toxicity [5] was 1.00, the “LD50 (ng/pest)” value [5] was 22.1614 ± 3.7522 ng/pest and the LC50 [6, 8] was 8.93 µg/mL (≈ 34.9 µM). The mortality at 500 µg/mL ([6]; 24 h) was 100%.
